In general, melting point refers to the temperature, or range, at which the solid turns liquid.

The source of these data is patent US11446304B2, “CDC-7-inhibitor compounds and use thereof for the treatment of neurological conditions” (CONSEJO SUPERIOR DE INVESTIGACIONES CIENTIFICAS (CSIC), priority 2017, dated 2022).

SMILES strings stand for the structures.

A short description of data set [1]: PAMPA blood-brain barrier permeation (porcine brain lipid). Format: in vitro ADME. The settings on record: for Papp at 2.5 h: PAMPA-BHE, PBS pH 7.4/EtOH 70:30, 2 h 30 min at 25° C., mean ± SD, read-out: Pe; for PAMPA prediction of central nervous system (CNS) penetration: from Pe in PAMPA-BHE. From the text: An essential requirement for drugs for the treatment of neurodegenerative diseases is the ability to cross the blood-brain barrier (BBB), as otherwise they could not act on the target of interest. Therefore, for compounds that are not permeable or located in the area of uncertainty, it may be necessary to properly convey a pharmaceutical formulation through methods known to an expert in the field, such as encapsulation. This capability can be predicted in vitro using a method known by the acronym PAMPA (Parallel Artificial Membrane Permeability Assay) described by Di et al (Di, L.; Kerns, E. H.; Fan, K.; McConnell, O. J.; Carter, G. T. Eur. J. Med. Chem. 2003, 38 (3), 223-232) and which has subsequently been fine-tuned in our research group. This method allows predicting the effective permeability through artificial membranes by means of a passive diffusion process.
First of all, it is necessary to validate the method, for which 10 commercial compounds are used whose penetration capacity in the central nervous system (CNS) is known and which are to be specified below, obtaining in this case a good linear correlation between the experimental permeability values (Pe) and those described (FIG. 1). This correlation line obtained following the pattern described in the bibliography allows establishing the limits to predict whether or not a compound can cross the blood-brain barrier. Thus, a compound is considered BBB permeable (SNC+) if it has a permeability>4.48×10^−6 cm-s^−1.
For the procedure, between 3-5 mg of caffeine, desipramine, enoxacin, hydrocortisone, ofloxacin, piroxicam and testosterone, 12 mg of promazine and 25 mg of atenolol and verapamil were taken and dissolved in EtOH (1000 μL). 100 μL of these solutions were taken and EtOH (1400 μL) and phosphate buffer (PBS) pH=7.4 (3500 μL) were added in order to achieve a final EtOH concentration of 30% v/v in solution. Finally, the dissolutions were filtered.
On the other hand, a PBS/EtOH solution (70:30) was added to each well of the acceptance plate (180 μL). The donor plate was impregnated with a porcine brain lipid solution (4 μL) dissolved in dodecane (20 mg mL^−1). After 5 min, dissolution of each compound was added to this plate (180 μL).
Of the compounds 1 to 10 evaluated, 1-2 mg were taken and dissolved in EtOH (1500 μL) and phosphate buffer (PBS) pH=7.4 (3500 μL), filtered and added to the donor plate. With these solutions, the wavelengths at which the compounds absorb are determined and the initial absorbance levels at these wavelengths are measured using a UV absorbance reader. Each sample was analyzed from two to five wavelengths, in three wells and in two independent experiments.
The donor plate was then deposited on the acceptor forming a kind of “sandwich” and incubated for 2 hours and 30 minutes at 25° C. In this way, the compounds will pass from the donor plate to the acceptor plate through the porcine brain lipid by passive diffusion. After that time, the donor plate is carefully removed and the concentration and final absorbance of both commercial and synthesized compounds is determined. The results obtained are expressed as the mean of the measurements [standard deviation (SD)] of the different experiments carried out and are shown in table 2.

In data set [2] the target is human recombinant CDC7/DBF4 (Homo sapiens, UniProt O00311). In words: CDC7 inhibition measurement (LanthaScreen Eu kinase binding, FRET). The settings on record: CDC7/DBF4 0.5 nM, 60 min at room temperature; read-out: CDC7 Lantha ™ CI50. The source says: The LanthaScreen Eu kinases inhibition assay uses an Alexa marker Fluor™ that binds to a kinase and is detected by the addition of an Eu-marked antibody. The binding of the marker and the antibody to the kinase results in a high degree of FRET, while the displacement of the marker by an inhibitor results in a loss of FRET. Unlike many other kinase activity tests, this is a simple mix and read test, with no developmental stages. This test method has been developed by Life Technologies and identifies competitive ATP kinase inhibitors, making them suitable for the detection of any compound that binds to the ATP site.
Chain of human recombinant CDC7/DBF4 (O00311 whole entry): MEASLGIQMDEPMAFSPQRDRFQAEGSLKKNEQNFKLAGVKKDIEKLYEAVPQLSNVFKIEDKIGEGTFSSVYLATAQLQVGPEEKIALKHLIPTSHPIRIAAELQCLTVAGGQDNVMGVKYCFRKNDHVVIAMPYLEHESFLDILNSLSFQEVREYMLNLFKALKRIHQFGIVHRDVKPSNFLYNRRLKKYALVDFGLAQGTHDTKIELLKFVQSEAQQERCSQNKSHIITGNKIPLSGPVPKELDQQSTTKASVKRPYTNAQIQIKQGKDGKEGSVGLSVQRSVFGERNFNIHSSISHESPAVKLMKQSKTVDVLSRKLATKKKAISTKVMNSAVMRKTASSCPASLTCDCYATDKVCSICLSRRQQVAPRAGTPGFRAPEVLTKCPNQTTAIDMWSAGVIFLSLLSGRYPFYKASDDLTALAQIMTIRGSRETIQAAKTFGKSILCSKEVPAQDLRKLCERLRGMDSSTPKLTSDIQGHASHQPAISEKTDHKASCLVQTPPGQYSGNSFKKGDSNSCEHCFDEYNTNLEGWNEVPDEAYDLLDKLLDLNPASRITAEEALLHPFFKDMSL
Chain of human recombinant CDC7/DBF4 (Q9UBU7 whole entry partner): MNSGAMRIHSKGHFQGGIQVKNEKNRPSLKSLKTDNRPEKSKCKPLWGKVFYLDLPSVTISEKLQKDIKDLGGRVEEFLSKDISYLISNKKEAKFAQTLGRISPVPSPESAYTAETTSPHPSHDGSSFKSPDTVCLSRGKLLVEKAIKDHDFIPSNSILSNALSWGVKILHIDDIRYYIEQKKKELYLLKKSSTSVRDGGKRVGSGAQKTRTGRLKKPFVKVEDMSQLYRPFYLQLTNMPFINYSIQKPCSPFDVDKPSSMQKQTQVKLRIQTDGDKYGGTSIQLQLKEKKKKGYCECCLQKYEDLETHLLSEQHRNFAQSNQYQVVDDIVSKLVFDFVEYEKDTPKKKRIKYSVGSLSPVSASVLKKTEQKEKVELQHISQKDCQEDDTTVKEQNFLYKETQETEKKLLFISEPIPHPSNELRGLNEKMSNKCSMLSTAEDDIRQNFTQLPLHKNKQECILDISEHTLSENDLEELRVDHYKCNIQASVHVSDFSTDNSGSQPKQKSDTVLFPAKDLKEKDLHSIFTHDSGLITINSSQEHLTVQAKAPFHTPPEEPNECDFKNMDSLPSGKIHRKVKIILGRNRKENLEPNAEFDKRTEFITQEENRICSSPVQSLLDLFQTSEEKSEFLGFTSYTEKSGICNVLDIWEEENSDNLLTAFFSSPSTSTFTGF
The compounds are evaluated at 1% DMSO (final) in the well. A mixture of human recombinant CDC7/DBF4 (0.5 nM), Eu-antiGST antibody (2 nM) and AlexaFluor marker (1 nM) has been used in a buffer of 50 mM HEPES pH 7.5, 0.01% BRIJ-35, 10 mM MgCl2, 1 mM EGTA in white plates of […], low volume, coded (Greiner cat. #784207), 160 nL (100×100% DMSO compound), 3.84 μL (buffer with CDC7/DBF4), 8.0 μL (antibody), 4.0 μL (marker) are added. Agitate 30 s and incubate at room temperature for 60 min. Then measure the fluorescence in the plate reader and analyze the data (Table 1).

As to `Brc1ccc(COc2ncnc3[nH]cnc23)cc1` [Compound 21, 6-((4-Bromobenzyl)oxy)-9H-purine], in data set [1], the Papp at 2.5 h came to 14 ± 1.4 ×10⁻⁶ cm/s and the “PAMPA prediction of central nervous system (CNS) penetration” value (“PAMPA prediction” for short) is reported as “SNC+ (a compound is considered BBB permeable (SNC+) if it has a permeability>4.48×10^−6 cm-s^−1)”.

With `COc1cccc(CSc2ncnc3[nH]cnc23)c1` [Compound 15, 6-((3-methoxybenzyl)thio)-9H-purine], in data set [1], the Papp at 2.5 h is 5.3 ± 0.8 ×10⁻⁶ cm/s and the “PAMPA prediction” value was “SNC+ (a compound is considered BBB permeable (SNC+) if it has a permeability>4.48×10^−6 cm-s^−1)”.

Consider `FC(F)(F)c1ccc(CSc2ncnc3[nH]cnc23)cc1` [Compound 22, 6-(4-(trifluoromethyl)benzylthio)-9H-purine], for which, in data set [1], the Papp at 2.5 h stood at 13.5 ± 1.6 ×10⁻⁶ cm/s and the “PAMPA prediction” value was “SNC+ (a compound is considered BBB permeable (SNC+) if it has a permeability>4.48×10^−6 cm-s^−1)”. Besides, the IC50 in data set [2] is 367 nM.

The compound `N#Cc1ccc(CSc2ncnc3[nH]cnc23)cc1` [Compound 19, 6-((4-Cyanobenzyl)thio)-9H-purine] came in with a melting point of 228 to 230 °C. In data set [1], the Papp at 2.5 h worked out at 2 ± 0.7 ×10⁻⁶ cm/s and the “PAMPA prediction” value is recorded as “SNC+/−”.

In the case of `c1ccc(COc2[nH]cnc3ncnc2-3)cc1` [Compound 20, 6-((benzyl)oxy)-9H-purine], in data set [1], the Papp at 2.5 h is 2.9 ± 0.9 ×10⁻⁶ cm/s and the “PAMPA prediction” value is “SNC+/−”. Also, in data set [2], the IC50 is 167 nM.

For `CSc1ccc(CSc2ncnc3[nH]cnc23)cc1` [Compound 23, 6-((4-(Methylthio)benzyl)thio)-9H-purine], the melting point is 203 to 205 °C. In data set [1], the Papp at 2.5 h came out at 17.8 ± 0.7 ×10⁻⁶ cm/s and the “PAMPA prediction” value was “SNC+ (a compound is considered BBB permeable (SNC+) if it has a permeability>4.48×10^−6 cm-s^−1)”. For the same compound, in data set [2], the IC50 is 146 nM.

`CC(=O)Nc1ccc(CSc2ncnc3[nH]cnc23)cc1` [Compound 18, 6-((4-Acetamidobenzyl)thio)-9H-purine] showed a melting point of 223 to 225 °C.

For the compound `O=[N+]([O-])c1ccc(CSc2ncnc3[nH]cnc23)cc1` [Compound 17, 6-((4-nitrobenzyl)thio)-9H-purine], in data set [1], the Papp at 2.5 h is 5.5 ± 1.3 ×10⁻⁶ cm/s and the “PAMPA prediction” value was “SNC+ (a compound is considered BBB permeable (SNC+) if it has a permeability>4.48×10^−6 cm-s^−1)”. Moreover, the IC50 in data set [2] came out at 127 nM.

Consider `Clc1ccccc1CSc1ncnc2[nH]cnc12` [Compound 14, 6-((2-Chlorobenzyl)thio)-9H-purine], for which the melting point was 200 to 202 °C. Also, in data set [1], the Papp at 2.5 h was found to be 18.1 ± 1.2 ×10⁻⁶ cm/s and the “PAMPA prediction” value was “SNC+ (a compound is considered BBB permeable (SNC+) if it has a permeability>4.48×10^−6 cm-s^−1)”. For the same compound, in data set [2], the IC50 is 92 nM.

`CCOC(=O)c1ccccc1CSc1ncnc2[nH]cnc12` [Compound 16, Ethyl 2-(((9H-Purine-6-yl)thio)methyl)benzoate]: the melting point was 145 to 147 °C. In data set [1], the Papp at 2.5 h is 9.7 ± 1.4 ×10⁻⁶ cm/s and the “PAMPA prediction” value is reported as “SNC+ (a compound is considered BBB permeable (SNC+) if it has a permeability>4.48×10^−6 cm-s^−1)”. Moreover, in data set [2], the IC50 came to 2790 nM.
